From patent US3944580A, “7-[2-(Dithiocarboxylamino)alkanamido]-cephalosporanic acid derivatives” (American Home Products Corporation, priority 1974, dated 1976) come the findings set out here.

The MIC is the lowest concentration that inhibits growth of the organism.

Molecules are shown by their SMILES. In brackets after ≈: the same amount, converted by molar mass. Like-named read-outs stand apart in the source and are kept apart here.

Assay [1] has as its system bacillus subtilis (BA SU) 663. Nature of the assay: agar serial dilution MIC, BA SU 663. The following applies: BA SU strain 663. Format: cell-based. An excerpt: (§1) The compounds of this invention are antibacterials effective against gram-positive and gram-negative test organisms as well as penicillin resistant staphylococcus at an inhibitory concentration at or below 250 micrograms per milliliter using the well-known and scientifically accepted agar serial dilution technique. […] Thus, the compounds of this invention are useful in the fields of comparative pharmacology and microbiology and may be used in the treatment of bovine mastitis, as growth promotors in animals and for the treatment of infections amenable to treatment with penicillins and cephalosporins.
(§2) The following examples are presented for purposes of illustration and should not be construed as limitations upon the true scope of this invention.
Ba su -- bacillus subtilis

Assay [2] relates to staphylococcus aureus (ST AU) 6538P. The assay is described as follows: agar serial dilution MIC, ST AU 6538P. The assay is classed as cell-based.
Excerpt: as §1, §2
(§3) St au -- staphylococcus aureus

The test system of assay [3] is staphylococcus aureus (ST AU) Smith. Nature of the assay: agar serial dilution MIC, ST AU Smith. The assay is classed as cell-based.
Excerpt: as §1, §2, §3

Assay [4] relates to staphylococcus aureus (ST AU) CHP. The assay is described as follows: agar serial dilution MIC, ST AU CHP. The assay is classed as cell-based. As to conditions: ST AU strain CHP.
Excerpt: as §1, §2, §3

In assay [5] the test system is staphylococcus aureus (ST AU) 53-180. The assay is described as follows: agar serial dilution MIC, ST AU 53-180. The assay is classed as cell-based.
Excerpt: as §1, §2, §3

The test system of assay [6] is neisseria catarrhalis (NE CA) 8193. Nature of the assay: agar serial dilution MIC, NE CA 8193. Format: cell-based. The following applies: NE CA strain 8193.
Excerpt: as §1, §2
Ne ca -- neisseria catarrhalis

The subject of assay [7] is escherichia coli (ES CO) 9637. Nature of the assay: agar serial dilution MIC, ES CO 9637. Format: cell-based. The following applies: ES CO strain 9637.
Excerpt: as §1, §2
(§4) Es co -- escherichia coli

The subject of assay [8] is escherichia intermedia (ES IN) 65-1. Nature of the assay: agar serial dilution MIC, ES IN 65-1. The assay is classed as cell-based. The following applies: Citrobacter intermedius, ES IN strain 65-1.
Excerpt: as §1, §2
Es in -- escherichia intermedia

The test system of assay [9] is salmonella paratyphi (SA PA) 11737. The assay is described as follows: agar serial dilution MIC, SA PA 11737. The following applies: Salmonella enterica. The assay is classed as cell-based.
Excerpt: as §1, §2
Sa pa -- salmonella paratyphi

The subject of assay [10] is klebsiella pneumoniae (KL PN) 10031. The assay is described as follows: agar serial dilution MIC, KL PN 10031. The assay is classed as cell-based. The following applies: KL PN strain 10031.
Excerpt: as §1, §2
Kl pn -- klebsiella pneumoniae

In assay [11] the test system is bordetella brochiseptica (BO BR) 4617. Nature of the assay: agar serial dilution MIC, BO BR 4617. The assay is classed as cell-based. The following applies: BO BR strain 4617.
Excerpt: as §1, §2
Bo br -- bordetella brochiseptica

Assay [12] relates to proteus vulgaris (PR VU) 6896. Nature of the assay: agar serial dilution MIC, PR VU 6896. The assay is classed as cell-based. As to conditions: PR VU strain 6896.
Excerpt: as §1, §2
Pr vu -- proteus vulgaris

In assay [13] the test system is escherichia coli (ES CO) 920. Nature of the assay: in vivo curative dose in infected mice, ES CO 920. The following applies: subcutaneous at zero time and 6 hours after i.p. infection, 14 days. On the procedure: (§5) The in vivo activity of the antibacterial agents of this invention was established by subcutaneously administering a dose of the compound being tested at zero time and 6 hours after infection to a randomized group of mice which had been infected with a specific infective agent, such as Escherichia coli, etc., via intraperitoneal injection of 0.5 milliliters of the infective agent in 5 per cent gastric mucin. The mice were then observed for 14 days and any deaths were recorded daily. The curative dose (CD50) was then reported in terms of the milligrams per mouse needed for […] of the infective agent.
as §4

Assay [14] deals with proteus mirablis (PR MI) PR-3. The assay is described as follows: in vivo curative dose in infected mice, PR MI PR-3. The following applies: subcutaneous at zero time and 6 hours after i.p. infection, 14 days, mg per mouse, average of several tests. As to the method:
as §5
Pr mi -- proteus mirablis

Assay [15] has as its system salmonella typhosa (SA TY) SAD-12. Nature of the assay: in vivo curative dose in infected mice, SA TY SAD-12. The following applies: subcutaneous at zero time and 6 hours after i.p. infection, 14 days, mg per mouse, average of several tests. As to the method: as §5
Sa ty -- salmonella typhosa

The subject of assay [16] is staphylococcus aureus (ST AU) Smith. Nature of the assay: in vivo curative dose in infected mice, ST AU Smith. As to conditions: subcutaneous at zero time and 6 hours after i.p. infection, 14 days, mg per mouse, average of several tests. As to the method: as §5, §3
In assay [17] the test system is shigella sonnei (SH SO) SH-1. Nature of the assay: in vivo curative dose in infected mice, SH SO SH-1. As to conditions: subcutaneous at zero time and 6 hours after i.p. infection, 14 days, mg per mouse, average of several tests. As to the method:
as §5

Assay [18] concerns EN AE 13048. The assay is described as follows: agar serial dilution MIC, EN AE 13048. Format: cell-based. The following applies: EN AE strain 13048.
Excerpt: as §1, §2

Setting [19] is: agar serial dilution, ST AU strain 6538P, read-out: MIC.
Where [20] appears, read: agar serial dilution, ST AU strain Smith, read-out: MIC.
Setting [21] is: agar serial dilution, ST AU strain 53-180, read-out: MIC.

For `CC(=O)OCC1=C(C(=O)O)N2C(=O)C(NC(=O)CNC(=S)SCC(=O)O)C2SC1` (stereo not drawn) [Example 1, 7-[2-(Dithiocarboxyamino)acetamido]cephalosporanic acid N-carboxymethyl ester], the MIC was 0.244 µg/mL (≈ 0.526 µM) in assay [1]; 0.976 µg/mL (≈ 2.11 µM) in assay [2] (setting [19]); 0.976 µg/mL (≈ 2.11 µM) in assay [3] (setting [20]); 3.9 µg/mL (≈ 8.41 µM) in assay [4]; 3.9 µg/mL (≈ 8.41 µM) in assay [5] (setting [21]); 250 µg/mL (≈ 539 µM) in assay [6]. The MIC in [7] stood at 62.5 µg/mL (≈ 135 µM); in assay [8] it was 250 µg/mL (≈ 539 µM); in assay [9] it was 7.81 µg/mL (≈ 16.8 µM); in [10] it was 31.3 µg/mL (≈ 67.5 µM); in [11], 15.6 µg/mL (≈ 33.7 µM); in assay [12] it was 15.6 µg/mL (≈ 33.7 µM). Also, the “in vivo curative dose (CD50)” value in assay [13] (mg per mouse, average of several tests, ES CO 920) was determined as 4.48 mg; in assay [14], 1.96 mg; in assay [15], 1.41 mg; in [16] it was 4.37 mg; in assay [17] it was 2.66 mg.
With `CC(=O)OCC1=C(C(=O)O)N2C(=O)C(NC(=O)CCNC(=S)SCC(=O)O)C2SC1` (stereo not drawn) [Example 2, 7-[3-(Dithiocarboxyamino)propionamido]cephalosporanic acid N-carboxymethyl ester], the MIC was 0.488 µg/mL (≈ 1.02 µM) in assay [1]; 0.976 µg/mL (≈ 2.04 µM) in assay [2]; 0.976 µg/mL (≈ 2.04 µM) in [3]; 3.9 µg/mL (≈ 8.17 µM) in assay [4]; 3.9 µg/mL (≈ 8.17 µM) in assay [5] (setting [21]); 125 µg/mL (≈ 262 µM) in assay [6]. In addition, the MIC in assay [7] turned out to be 15.6 µg/mL (≈ 32.7 µM); in [9] it was 0.976 µg/mL (≈ 2.04 µM); in assay [10], 31.3 µg/mL (≈ 65.5 µM); in assay [11], 7.81 µg/mL (≈ 16.4 µM); in assay [12] it was 1.95 µg/mL (≈ 4.08 µM).
Regarding `CC(=O)OCC1=C(C(=O)O)N2C(=O)C(NC(=O)C(NC(=S)SCC(=O)O)c3ccccc3)C2SC1` (stereo not drawn) [Example 3, 7-[2-(Dithiocarboxyamino)phenylacetamido]cephalosporanic acid N-carboxymethyl ester], the MIC in assay [1] turned out to be 3.9 µg/mL (≈ 7.23 µM); in assay [2] (setting [19]), 7.81 µg/mL (≈ 14.5 µM); in [3] (setting [20]) it was 7.81 µg/mL (≈ 14.5 µM); in assay [4], 31.3 µg/mL (≈ 58 µM); in assay [5], 15.6 µg/mL (≈ 28.9 µM); in assay [6] it was 250 µg/mL (≈ 463 µM). For the same molecule, the minimum inhibitory concentration (MIC) came out at 31.3 µg/mL (≈ 58 µM) in assay [7]; 250 µg/mL (≈ 463 µM) in assay [8]; 15.6 µg/mL (≈ 28.9 µM) in assay [9]; 250 µg/mL (≈ 463 µM) in assay [18]; 31.3 µg/mL (≈ 58 µM) in assay [10]; 125 µg/mL (≈ 232 µM) in assay [11]. In assay [12], this molecule showed an MIC of 7.81 µg/mL (≈ 14.5 µM). In [13] (ES CO-920), the CD50 is given as 6.0 milligrams/mouse.
